According to patent EP2457900A1, “New pyrazole derivatives having CRTh2 antagonistic behaviour” (Almirall, S.A., priority 2010, dated 2012):

What follows are compounds tested against T1, CRTh2 receptor (Homo sapiens, UniProt Q9Y5Y4) (assay: CRTh2 GTPγS antagonism binding assay). Conditions: membranes from CHO.K1 cells stably overexpressing the CRTh2 receptor; [35S]-GTPγS 0.1 nM; PGD2 at 50 nM (EC80); compound pre-incubated 1 h; read-out: GTPγ Binding.
T1 construct: expressed in transfected cells; host or cells: CHO.K1 cells (membranes)
T1 sequence (Q9Y5Y4 1-395): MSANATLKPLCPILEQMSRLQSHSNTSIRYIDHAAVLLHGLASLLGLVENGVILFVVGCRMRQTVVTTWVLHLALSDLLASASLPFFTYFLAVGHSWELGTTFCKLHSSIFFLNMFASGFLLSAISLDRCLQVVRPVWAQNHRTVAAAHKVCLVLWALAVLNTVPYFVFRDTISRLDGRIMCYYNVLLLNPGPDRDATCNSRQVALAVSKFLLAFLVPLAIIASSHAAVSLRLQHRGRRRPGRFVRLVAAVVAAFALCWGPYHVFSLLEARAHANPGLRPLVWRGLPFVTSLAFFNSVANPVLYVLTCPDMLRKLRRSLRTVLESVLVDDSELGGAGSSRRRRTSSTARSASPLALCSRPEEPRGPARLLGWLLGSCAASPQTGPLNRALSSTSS
Format: biochemical
Description: CRTh2 GTPγS antagonism binding assay
The assay is performed using membranes obtained from CHO.K1 cells stably overexpressing the CRTh2 receptor and [^35S]-GTPγS as radioligand. Assay is performed pre-incubating 4-8 µg of membranes per well with the compound to be tested for 1 h, followed by incubation with PGD2 at 50 nM (EC80), 0.1 nM [^35S]-GTPγS in incubation buffer (20 mM HEPES, 10 mM MgCl2, 100 mM NaCl, 10 µM GDP, 10 µg/ml Saponine and 0.2% BSA) for 2 h at room temperature. The reaction is terminated by filtering in GF/C plates pre-treated with 20 mM HEPES, 10 mM MgCl2, 100 mM NaCl and washing 6 times with wash buffer (20 mM NaH2PO4, 20 mM Na2HPO4). After washing, plates are dried and scintillation buffer Optiphase added. The radioactivity retained in the filter is counted using a Microbeta liquid scintillation counter.

| Structure (SMILES) | IC50 [nM] |
| --- | --- |
| Cc1nn(-c2cccc(NC(=O)[C@@H]3C[C@H]3c3ccccc3)c2)c(C)c1CC(=O)O (relative stereo) [Example 1, {3,5-Dimethyl-1-[3-({[trans-2-phenylcyclopropyl]carbonyl}amino)phenyl]-1H-pyrazol-4-yl}acetic acid] | 250 |
| Cc1ccc(NC(=O)Nc2cccc(Cn3nc(C)c(CC(=O)O)c3C)c2)cc1 [Example 4, {3,5-Dimethyl-1-[3-({[(4-methylphenyl)amino]carbonyl}amino)benzyl]-1H-pyrazol-4-yl}acetic acid] | 370 |
| Cc1nn(Cc2ccccc2S(=O)(=O)c2ccccc2)c(C)c1CC(=O)O [Example 13, {3,5-Dimethyl-1-[2-(phenylsulfonyl)benzyl]-1H-pyrazol-4-yl}acetic acid] | 86 |
| Cc1c(CC(=O)O)c(-c2ccccc2)nn1Cc1ccccc1S(=O)(=O)c1ccccc1 [Example 15, {5-Methyl-3-phenyl-1-[2-(phenylsulfonyl)benzyl]-1H-pyrazol-4-yl}acetic acid] | 6.8 |
| Cc1c(CC(=O)O)c(-c2ccccc2)nn1Cc1ccccc1S(=O)(=O)N1CCOCC1 [Example 23, {5-Methyl-1-[2-(morpholin-4-ylsulfonyl)benzyl]-3-phenyl-1H-pyrazol-4-yl}acetic acid] | 74 |
| Cc1c(CC(=O)O)c(-c2ccccc2)nn1Cc1ccccc1Cc1ccccc1 [Example 24, [1-(2-Benzylbenzyl)-5-methyl-3-phenyl-1H-pyrazol-4-yl]acetic acid] | 105 |
| Cc1c(CC(=O)O)c(-c2ccc(Cl)cc2)nn1Cc1ccccc1S(=O)(=O)N1CCOCC1 [Example 25, {3-(4-Chlorophenyl)-5-methyl-1-[2-(morpholin-4-ylsulfonyl)benzyl]-1H-pyrazol-4-yl}acetic acid] | 94 |
| Cc1c(CC(=O)O)c(-c2ccc(Cl)cc2)nn1Cc1ccccc1S(=O)(=O)c1ccccc1 [Example 26, {3-(4-Chlorophenyl)-5-methyl-1-[2-(phenylsulfonyl)benzyl]-1H-pyrazol-4-yl}acetic acid] | 24 |
| Cc1c(CC(=O)O)c(=O)[nH]n1Cc1ccccc1S(=O)(=O)c1ccccc1 [Example 29, {3-Hydroxy-5-methyl-1-[2-(phenylsulfonyl)benzyl]-1H-pyrazol-4-yl}acetic acid] | 160 |
| Cc1c(CC(=O)O)c(-c2ccccc2)nn1Cc1ccccc1S(=O)(=O)N1CCCCC1 [Example 30, {5-Methyl-3-phenyl-1-[2-(piperidin-1-ylsulfonyl)benzyl]-1H-pyrazol-4-yl}acetic acid] | 66 |
